Reference: patent US20220218664A1, “DRUG AND METHOD FOR TREATING OR PREVENTING COMPLICATIONS FROM DIABETES, USING SAID DRUG” (TMS Co., Ltd., priority 2019, published 2022)

What was measured:
Format in all cases: in vivo, C57BL/6J male mice
[1] = system: streptozotocin-induced diabetic mice; assay: Thickness and G-ratio of myelin in the sciatic nerve; details: 10 mg/kg i.p. once a day, 4th week
Method: (§1) 9-week-old C57BL/6J male mice were purchased and familiarized with an animal facility for 1 week. 200 mg/kg of streptozotocin (streptozotocin; STZ) was administered […] into the peritoneal cavity of 10-week-old mice to prepare streptozotocin-induced diabetic mice (hereinafter also referred to as “STZ administration week 0”). One week after the administration of streptozotocin, blood was collected from the tail vein of the mice, and the blood glucose level (BS) was measured using an automatic blood glucose measuring device (product name: Medisafe (trademark) Mini GR-102, made by Terumo (Co)). Mice having a blood glucose level of 400 mg/dL or more were determined to be diabetic mice.
(§2) The SMTP-44D groups, the edaravone group, and the pregabalin group were administered SMTP-44D (0.3 mg/kg, 3 mg/kg, or 30 mg/kg doses, respectively), edaravone (10 mg/kg dose), or pregabalin (10 mg/kg dose) into the peritoneal cavity once a day for 3 consecutive weeks from the day following the first week to the fourth week after STZ administration.
The above-mentioned STZ group, SMTP-44D (30 mg/kg) group, edaravone group, pregabalin group, and control group mice in the 4th week were dissected to remove the sciatic nerves. The sciatic nerves were fixed using neutral buffered formalin and embedded using an Epon resin, and then semi-thin segments were formed and dyed using toluidine blue. The cross sections of the sciatic nerves in the respective specimens were examined using a microscope equipped with a digital camera at 400× magnification. The thickness of myelin ((diameter of axon including myelin diameter of axon)/2) and G-ratio (diameter of axon/diameter of axon including myelin) were measured.

[2] = system: streptozotocin-induced diabetic mice; assay: Hot plate test: evaluating thermal stimulus; details: 10 mg/kg i.p. once a day
Method: as §1, §2
The above-mentioned STZ group, SMTP-44D groups, edaravone group, pregabalin group, and control group mice were put in grid-like boxes, respectively, and were left for 30 minutes. After having been left, an acrylic disc (diameter: 20 cm; height (that is, thickness of the acrylic disc): […]) was placed on an EC hot plate (model number: EC1200) maintained at 49 to 50° C., and the mice were put on the acrylic disc. The measurements were started after the mice landed on the EC hot plate. The times from the mice landing to their action to jump or lick their hind legs were evaluated as thermal thresholds (seconds: s). Note, to avoid burns on their plantae, the measurements were ceased 30 seconds after beginning. The measurements were conducted three times at 30-minute intervals. A mean value of three thermal thresholds (seconds: s) was calculated for 1 mouse, and then a mean value of the 12 mice for the respective groups was found.

[3] = system: streptozotocin-induced diabetic mice; assay: Sciatic nerve blood flow; details: 10 mg/kg i.p. once a day, 4th week
Method: as §1, §2
Sciatic nerves of the above-mentioned STZ group, SMTP-44D groups, edaravone group, pregabalin group, and control group mice on the 4th week were exposed under isoflurane anesthesia, and then, using the full-field laser perfusion imager, their sciatic nerve blood flows (perfusion unit: PU) were measured. After the sciatic nerve blood flows were measured, a voltage was output from a PowerLab through the […] to impart an electrical stimulus to the sciatic nerves using needle electrodes. The electrical stimulus went through the Analog Stimulus Isolator via recording electrodes attached to the gastrocnemius and was input into the PowerLab, and thus neuromuscular function response curves were measured. The sciatic nerves were stimulated between two points at 8-mm intervals. The sciatic nerve conduction velocity (m/s) was calculated by dividing the […]. The sciatic nerve blood flow and sciatic nerve conduction velocity were measured using a Hot-1 small-sized heating controller and small-sized body temperature retention device (model number: […]-1), maintaining the rectal temperature at 37° C. The measurement results are described in Table 11.

TNF-α = assay: Inflammatory cytokine TNF-α in sciatic nerve (ELISA); details: 10 mg/kg i.p. once a day, 4th week
Method: as §1, §2
The sciatic nerves of the above-mentioned STZ group, SMTP-44D group (30 mg/kg), edaravone group, pregabalin group, and control group mice on the 4th week were homogenized using the RIPA buffer containing a protease inhibitor cocktail. Moreover, centrifugation was conducted at 4° C. for 15 minutes at 10,000 g, and the supernatant was collected and used for measuring TNF-α concentration (pg/mL), IL-1β concentration (pg/mL), IL-6 concentration (pg/mL), and total protein concentration (μg/mL), respectively. An ELISA assay kit was used for the TNF-α, IL-1β, and IL-6 concentrations. The total protein concentration was measured by using a Pierce (trademark) BCA Protein Assay Kit. The inflammatory cytokine level (pg/mg protein) in the total protein was calculated from the TNF-α concentration (pg/mL), IL-1β concentration (pg/mL), and IL-6 concentration (pg/mL), and total protein concentration (μg/mL).

[4] = system: streptozotocin-induced diabetic mice; assay: Hind plantar blood flow (laser perfusion imager); details: 10 mg/kg i.p. once a day
Method: as §1, §2
The hind plantar blood flows (perfusion unit: PU) of the above-mentioned STZ group, SMTP-44D groups, edaravone group, pregabalin group, and control group mice were measured under isoflurane anesthesia using a full-field laser perfusion imager.

[5] = 0th week (before dosing), listed as edaravone
[6] = 1st week (before dosing), listed as edaravone
[7] = 0th week (before dosing), listed as pregabalin
[8] = 1st week (before dosing), listed as pregabalin

SMILES: CC1=NN(c2ccccc2)C(=O)C1 [Edaravone, edaravone]
- G-ratio [1]: 0.619 ± 0.005
- Thickness of myelin [1]: 1.42 ± 0.02 μm
- G-ratio ([1]; listed as edaravone): 0.619±0.005
- Thickness of myelin ([1]; listed as edaravone): 1.42±0.02 μm
- Hot plate test thermal threshold ([2]; 0th week (before dosing)): 20.8 ± 0.5 s
- Hot plate test thermal threshold [2, 5]: 20.8 ± 0.5 s
- Hot plate test thermal threshold ([2]; 1st week (before dosing)): 15.7 ± 0.8 s
- Hot plate test thermal threshold [2, 6]: 15.7 ± 0.8 s
- Hot plate test thermal threshold ([2]; 2nd week): 15.5 ± 1.2 s
- Hot plate test thermal threshold ([2]; 2nd week, listed as edaravone): 15.5 ± 1.2 s
- Hot plate test thermal threshold ([2]; 3rd week): 15.4 ± 0.9 s
- Hot plate test thermal threshold ([2]; 3rd week, listed as edaravone): 15.4 ± 0.9 s
- Hot plate test thermal threshold ([2]; 4th week): 16.0 ± 0.8 s
- Hot plate test thermal threshold ([2]; 4th week, listed as edaravone): 16.0 ± 0.8 s
- Sciatic nerve blood flow [3]: 1336.1 ± 46.7 PU
- Sciatic nerve blood flow ([3]; listed as edaravone): 1336.1±46.7 PU
- TNF-α (TNF-α): 12.45 ± 2.06 pg/mg protein
- TNF-α (TNF-α; listed as edaravone): 12.45±2.06 pg/mg protein
- Hind plantar blood flow ([4]; 0th week (before dosing)): 227.2 ± 12.5 PU
- Hind plantar blood flow [4, 5]: 227.2±12.5 PU
- Hind plantar blood flow ([4]; 1st week (before dosing)): 149.7 ± 11.5 PU
- Hind plantar blood flow [4, 6]: 149.7±11.5 PU
- Hind plantar blood flow ([4]; 2nd week, listed as edaravone): 161.4±9.1 PU
- Hind plantar blood flow ([4]; 3rd week): 166.6 ± 7.5 PU
- Hind plantar blood flow ([4]; 3rd week, listed as edaravone): 166.6±7.5 PU
- Hind plantar blood flow ([4]; 4th week): 178.2 ± 9.9 PU
- Hind plantar blood flow ([4]; 4th week, listed as edaravone): 178.2±9.9 PU

SMILES: CC(C)C[C@H](CN)CC(=O)O [Pregabalin, pregabalin]
- G-ratio ([1]; listed as Preaabalin): 0.665 ± 0.006
- Thickness of myelin ([1]; listed as Preaabalin): 1.29 ± 0.03 μm
- G-ratio ([1]; listed as pregabalin): 0.665±0.006
- Thickness of myelin ([1]; listed as pregabalin): 1.29±0.03 μm
- Hot plate test thermal threshold ([2]; 0th week (before dosing)): 22.2 ± 0.8 s
- Hot plate test thermal threshold [2, 7]: 22.2 ± 0.8 s
- Hot plate test thermal threshold ([2]; 1st week (before dosing)): 15.7 ± 0.7 s
- Hot plate test thermal threshold [2, 8]: 15.7 ± 0.7 s
- Hot plate test thermal threshold ([2]; 2nd week): 17.3 ± 1.1 s
- Hot plate test thermal threshold ([2]; 2nd week, listed as pregabalin): 17.3 ± 1.1 s
- Hot plate test thermal threshold ([2]; 3rd week): 17.7 ± 0.9 s
- Hot plate test thermal threshold ([2]; 3rd week, listed as pregabalin): 17.7 ± 0.9 s
- Hot plate test thermal threshold ([2]; 4th week): 17.9 ± 1.1 s
- Hot plate test thermal threshold ([2]; 4th week, listed as pregabalin): 17.9 ± 1.1 s
- Sciatic nerve blood flow [3]: 1114.1 ± 27.5 PU
- Sciatic nerve blood flow ([3]; listed as pregabalin): 1114.1±27.5 PU
- TNF-α (TNF-α): 14.53 ± 1.41 pg/mg protein
- TNF-α (TNF-α; listed as pregabalin): 14.53±1.41 pg/mg protein
- Hind plantar blood flow ([4]; 0th week (before dosing)): 214.2 ± 7.6 PU
- Hind plantar blood flow [4, 7]: 214.2±7.6 PU
- Hind plantar blood flow ([4]; 1st week (before dosing)): 159.8 ± 6.3 PU
- Hind plantar blood flow [4, 8]: 159.8±6.3 PU
- Hind plantar blood flow ([4]; 2nd week): 144.7 ± 8.3 PU
- Hind plantar blood flow ([4]; 2nd week, listed as pregabalin): 144.7±8.3 PU
- Hind plantar blood flow ([4]; 3rd week): 152.7 ± 9.5 PU
- Hind plantar blood flow ([4]; 3rd week, listed as pregabalin): 152.7±9.5 PU
- Hind plantar blood flow ([4]; 4th week): 151.2 ± 8.0 PU
- Hind plantar blood flow ([4]; 4th week, listed as pregabalin): 151.2±8.0 PU
